From US20260365628A1, “SUBSTITUTED 3,4-DIHYDROQUINOLINONE INHIBITORS OF TSHR” (Septerna, Inc., priority 2022, published 2026) come the findings set out here.

SMILES strings stand for the structures. Like-named read-outs stand apart in the source and are kept apart here.

In the assay the target is T1, hTSHR (Homo sapiens, UniProt P16473).
T1 construct: expressed in transfected cells
Briefly: hTSHR TR-FRET cAMP Assay (inhibition of M22-stimulated cAMP production). In kind it is cell-based. How it is done: Assays were performed using Expi293F Inducible cells (Invitrogen) stably expressing hTSHR via a pcZeo TetO DNA plasmid. Cell lines were maintained in suspension in Expi293 Expression Medium (ThermoFisher Scientific) supplemented with 10 µg/mL Blasticidin and 10 μg/mL Zeocin and incubated at 37° C., 8% CO2, with shaking. hTSHR cells were incubated overnight at 32° C., 5% C02, with shaking, but […] Doxycycline. Assay-ready aliquots were prepared by harvesting each cell type separately 24-hours post-induction. Cells were pelleted at 4° C., resuspended in Expi293 Expression media+10% DMSO, aliquoted, and kept frozen at −80° C. until ready for use.
For the assay, concentration-response curves of test and reference compounds were added to 384-well plates using an Echo 650 liquid handler (Beckman Coulter) and backfilled with DMSO to a final concentration of 0.5%. cAMP was measured using the cisbio cAMP Gs dynamic HTRF kit (PerkinElmer) according to manufacturer instructions. Aliquots of frozen hTSHR cells were quickly thawed and washed with phosphate-buffered saline (Sigma-Aldrich) to remove media and DMSO. The cells were resuspended in kit-supplied Stimulation Buffer at 0.8×10^6 cells/mL. 7.5 μL of the hTSHR cell dilution were added to each well of the assay plate and incubated with the compounds for 15 minutes in a 37 C, 0% CO2 incubator. 2.5 μL of Vehicle control or an EC80 concentration of recombinant human anti-TSHR antibody (M22, Creative Biolabs) was added to stimulate cAMP production. Cells were incubated with for 30 minutes at 37° C., 0% CO2. Following this incubation, the cells were lysed and accumulated cAMP was detected through the addition of kit-supplied lysis buffer containing d2-reagent and Eu-cryptate antibody. The HTRF signal was quantified using a BMG Clariostar plate reader optimized for HTRF assays. The HTRF ratio was determined by dividing the signal output at […] by that at 620 nm. Data were normalized to the signal produced by the EC80 concentration of either M22 or FSH (0% inhibition) and vehicle (no agonist, 100% inhibition).

Setting [1] is: Expi293F Inducible cells stably expressing hTSHR, cAMP HTRF, stimulated with EC80 of anti-TSHR antibody M22, 15 min compound preincubation, 30 min at 37° C., read-out: Activity (IC50 bins).

T1 sequence (P16473 21-764): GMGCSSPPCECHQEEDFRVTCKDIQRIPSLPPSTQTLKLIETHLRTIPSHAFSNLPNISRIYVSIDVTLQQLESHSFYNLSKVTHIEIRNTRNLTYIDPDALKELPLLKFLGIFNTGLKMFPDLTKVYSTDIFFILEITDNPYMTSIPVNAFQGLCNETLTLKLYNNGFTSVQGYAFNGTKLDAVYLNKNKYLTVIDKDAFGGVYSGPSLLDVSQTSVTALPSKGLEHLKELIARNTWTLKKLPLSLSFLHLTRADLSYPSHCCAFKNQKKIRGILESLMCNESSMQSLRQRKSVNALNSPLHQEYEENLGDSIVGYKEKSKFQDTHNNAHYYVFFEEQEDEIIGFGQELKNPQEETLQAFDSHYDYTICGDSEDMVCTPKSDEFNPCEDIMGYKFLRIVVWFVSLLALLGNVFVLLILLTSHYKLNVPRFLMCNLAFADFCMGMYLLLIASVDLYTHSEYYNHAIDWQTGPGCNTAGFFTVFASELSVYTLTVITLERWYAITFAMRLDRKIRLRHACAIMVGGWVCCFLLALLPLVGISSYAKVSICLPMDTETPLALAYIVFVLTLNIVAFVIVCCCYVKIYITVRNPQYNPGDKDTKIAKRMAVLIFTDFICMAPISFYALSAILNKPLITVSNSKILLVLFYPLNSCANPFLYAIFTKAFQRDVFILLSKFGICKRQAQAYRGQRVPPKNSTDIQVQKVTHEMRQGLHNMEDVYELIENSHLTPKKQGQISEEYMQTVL

Broadly, the IC50 is the midpoint of a concentration-inhibition curve. Take `C[C@@H](c1ccccc1F)N1C(=O)CCc2cc(NC(=O)NC(C)(C)C)ccc21` [Example 58, 3-tert-butyl-1-{1-[(1S)-1-(2-fluorophenyl)ethyl]-2-oxo-3,4-dihydroquinolin-6-yl}urea]: under setting [1], the IC50 is less than 100 nM.
On to `CC(C)(C)NC(=O)Nc1ccc2c(c1)CCC(=O)N2Cc1cccc(C(F)(F)F)c1C#N` [Example 59, 1-(tert-butyl)-3-(1-(2-cyano-3-(trifluoromethyl)benzyl)-2-oxo-1,2,3,4-tetrahydroquinolin-6-yl)urea], for which, under setting [1], the IC50 was 100 to 1000 nM.
Regarding `C[C@@H](c1cccc(C(F)(F)F)c1)N1C(=O)CCc2cc(NC(=O)NC(C)(C)C)ccc21` [Example 60, (S)-3-tert-butyl-1-(2-oxo-1-{1-[3-(trifluoromethyl)phenyl]ethyl}-3,4-dihydroquinolin-6-yl)urea], under setting [1], the half-maximal inhibitory concentration (IC50) was less than 100 nM.
Take `C[C@@H](c1ccccc1C#N)N1C(=O)CCc2cc(NC(=O)NC(C)(C)C)ccc21` [Example 61, (S)-1-(tert-butyl)-3-(1-(1-(2-cyanophenyl)ethyl)-2-oxo-1,2,3,4-tetrahydroquinolin-6-yl)urea]: the IC50 under setting [1] lay in the range of 100 to 1000 nM.
Same read-out and setting: the result for `C[C@@H](c1cccc(C(F)(F)F)c1)N1C(=O)COc2cc(NC(=O)NC(C)(C)C)ccc21` [Example 62, (S)-1-(tert-butyl)-3-(3-oxo-4-(1-(3-(trifluoromethyl)phenyl)ethyl)-3,4-dihydro-2H-benzo[b][1,4]oxazin-7-yl)urea] reads less than 100 nM.
Take `CC(C)(C)NC(=O)Oc1ccc2c(c1)CCC(=O)N2Cc1ccccc1` [Example 63]: the concentration for half-maximal inhibition (IC50) is more than 1000 nM.
With `CC(C)(C)NC(=O)Nc1ccc2c(c1)CCC(=O)N2CC1CCCCC1` [Example 64, 1-(tert-butyl)-3-(1-(cyclohexylmethyl)-2-oxo-1,2,3,4-tetrahydroquinolin-6-yl)urea], the 50% inhibitory concentration (IC50) under setting [1] was more than 1000 nM.
Same read-out and setting: to `CC(C)(C)NC(=O)Nc1cc2c(cc1F)N(Cc1ccccc1)C(=O)CC2` [Example 65, 1-(1-benzyl-7-fluoro-2-oxo-1,2,3,4-tetrahydroquinolin-6-yl)-3-(tert-butyl)urea] belongs 100 to 1000 nM; to `CC(C)(C)NC(=O)Nc1cc2c(cc1Cl)N(Cc1ccccc1)C(=O)CC2` [Example 66, 1-(1-benzyl-7-chloro-2-oxo-3,4-dihydroquinolin-6-yl)-3-tert-butylurea], 100 to 1000 nM; to `CC(C)(C)NC(=O)Nc1ccc2c(n1)CCC(=O)N2Cc1ccccc1` [Example 67, 1-(5-benzyl-6-oxo-5,6,7,8-tetrahydro-1,5-naphthyridin-2-yl)-3-(tert-butyl)urea], 100 to 1000 nM.
Turning to `CC(C)(C)NC(=O)Nc1ccc2c(c1)ncc(=O)n2Cc1ccccc1` [Example 68, 1-(1-benzyl-2-oxo-1,2-dihydroquinoxalin-6-yl)-3-(tert-butyl)urea], the IC50 under setting [1] is less than 100 nM.
With `CC(C)(C)NC(=O)Nc1cc(F)c2c(c1)CCC(=O)N2Cc1ccccc1` [Example 69, 1-(1-benzyl-8-fluoro-2-oxo-1,2,3,4-tetrahydroquinolin-6-yl)-3-(tert-butyl)urea], the 50% inhibitory concentration (IC50) under setting [1] is 100 to 1000 nM.
Take `CN1Cc2cc(NC(=O)NC(C)(C)C)ccc2N(Cc2cccc(C(F)(F)F)c2)C1=O` [Example 70, 1-(tert-butyl)-3-(3-methyl-2-oxo-1-(3-(trifluoromethyl)benzyl)-1,2,3,4-tetrahydroquinazolin-6-yl)urea]: the 50% inhibitory concentration (IC50) under setting [1] was less than 100 nM.
As to `CC(C)(C)NC(=O)Nc1ccc2c(c1)OCC(=O)N2Cc1cccc(C(F)F)c1` [Example 71, 1-(tert-butyl)-3-(4-(3-(difluoromethyl)benzyl)-3-oxo-3,4-dihydro-2H-benzo[b][1,4]oxazin-7-yl)urea], under setting [1], the IC50 was 100 to 1000 nM.
Regarding `CC(C)(C)NC(=O)Nc1ccc2c(c1)OCC(=O)N2Cc1cccc(CO)c1` [Example 72, 1-(tert-butyl)-3-(4-(3-(hydroxy-methyl)ben-zyl)-3-oxo-3,4-dihydro-2H-benzo[b][1,4]oxa-zin-7-yl)urea], under setting [1], the IC50 is more than 1000 nM.
Regarding `CC(C)(C)NC(=O)Nc1ccc2c(c1)OCC(=O)N2Cc1cccc(C2CC2)c1` [Example 73, 1-(tert-butyl)-3-(4-(3-cyclopropylbenzyl)-3-oxo-3,4-dihydro-2H-benzo[b][1,4]oxa-zin-7-yl)urea], the IC50 under setting [1] was in the range of 100 to 1000 nM.
The same measure, in the same setting: to `CC(C)(C)NC(=O)Nc1ccc2c(c1)OCC(=O)N2Cc1cccc(OC(F)(F)F)c1` [Example 74, 1-(tert-butyl)-3-(3-oxo-4-(3-(tri-fluoromethoxy)ben-zyl)-3,4-dihydro-2H-benzo[b][1,4]oxa-zin-7-yl)urea] belongs 100 to 1000 nM; to `CC(C)Oc1cccc(CN2C(=O)COc3cc(NC(=O)NC(C)(C)C)ccc32)c1` [Example 75, 1-(tert-butyl)-3-(4-(3-isopropoxybenzyl)-3-oxo-3,4-dihydro-2H-benzo[b][1,4]oxa-zin-7-yl)urea], 100 to 1000 nM; to `CC(C)(C)NC(=O)Nc1ccc2c(c1)OCC(=O)N2Cc1cccc2cn[nH]c12` [Example 76, 1-(4-((1H-indazol-7-y1)methyl)-3-oxo-3,4-dihydro-2H-benzo[b][1,4]oxa-zin-7-yl)-3-(tert-butyl)urea], more than 1000 nM.
In the case of `CC(C)(C)NC(=O)Nc1ccc2c(c1)OCC(=O)N2Cc1cccc(C(O)C(F)(F)F)c1` (stereo not shown) [Example 77, 1-(tert-butyl)-3-(3-oxo-4-(3-(2,2,2-trifluoro-1-hy-droxyethyl)benzyl)-3,4-dihydro-2H-benzo[b][1,4]oxa-zin-7-yl)urea], the concentration for half-maximal inhibition (IC50) under setting [1] lay in the range of 100 to 1000 nM.
`CC(C)(C)NC(=O)Nc1ccc2c(c1)OCC(=O)N2Cc1cccc([C@@H](O)C(F)(F)F)c1` [Example 78, (R)-1-(tert-butyl)-3-(3-oxo-4-(3-(2,2,2-trifluoro-1-hydroxyethyl)ben-zyl)-3,4-dihydro-2H-benzo[b][1,4]oxa-zin-7-yl)urea]: the IC50 under setting [1] fell in the range of 100 to 1000 nM.
The same measure, in the same setting: to `CC(C)(C)NC(=O)Nc1ccc2c(c1)OCC(=O)N2Cc1cccc([C@H](O)C(F)(F)F)c1` [Example 79, (S)-1-(tert-butyl)-3-(3-oxo-4-(3-(2,2,2-trifluoro-1-hy-droxyethyl)benzyl)-3,4-dihydro-2H-benzo[b][1,4]oxa-zin-7-yl)urea] belongs 100 to 1000 nM.
`CC(C)(C)NC(=O)Nc1ccc2c(c1)OCC(=O)N2Cc1cccc(C(O)CC(F)(F)F)c1` (stereo not shown) [Example 80, 1-(tert-butyl)-3-(3-oxo-4-(3-(3,3,3-trifluoro-1-hydroxypropyl)ben-zyl)-3,4-dihydro-2H-benzo[b][1,4]oxa-zin-7-yl)urea]: the IC50 under setting [1] was in the range of 100 to 1000 nM.
The same measure, in the same setting: the result for `C[C@H]1Oc2cc(NC(=O)NC(C)(C)C)ccc2N(Cc2cccc(C(F)(F)F)c2)C1=O` [Example 81] reads less than 100 nM; that for `C[C@@H]1Oc2cc(NC(=O)NC(C)(C)C)ccc2N(Cc2cccc(C(F)(F)F)c2)C1=O` [Example 82], 100 to 1000 nM.
Consider `C[C@H]1Oc2cc(NC(=O)NC(C)(C)C)ccc2N(Cc2cc(C(F)(F)F)ccc2C#N)C1=O` [Example 83, (R)-1-(tert-butyl)-3-(4-(2-cyano-5-(trifluoromethyl)benzyl)-2-methyl-3-oxo-3,4-dihydro-2H-benzo[b][1,4]oxazin-7-yl)urea], for which the IC50 under setting [1] was more than 1000 nM.
Still for that read-out and setting: the result for `C[C@@H]1Oc2cc(NC(=O)NC(C)(C)C)ccc2N(Cc2cc(C(F)(F)F)ccc2C#N)C1=O` [Example 84, (S)-1-(tert-butyl)-3-(4-(2-cyano-5-(trifluoromethyl)benzyl)-2-methyl-3-oxo-3,4-dihydro-2H-benzo[b][1,4]oxazin-7-yl)urea] reads 100 to 1000 nM.
The same measure, in the same setting: to `C[C@H]1Oc2cc(NC(=O)NC(C)(C)C)ccc2N(Cc2cc(Cl)ccc2C#N)C1=O` [Example 85, (R)-1-(tert-butyl)-3-(4-(5-chloro-2-cyanobenzyl)-2-methyl-3-oxo-3,4-dihydro-2H-benzo[b][1,4]oxazin-7-yl)urea] belongs 100 to 1000 nM; to `C[C@@H]1Oc2cc(NC(=O)NC(C)(C)C)ccc2N(Cc2cc(Cl)ccc2C#N)C1=O` [Example 86, (S)-1-(tert-butyl)-3-(4-(5-chloro-2-cyanobenzyl)-2-methyl-3-oxo-3,4-dihydro-2H-benzo[b][1,4]oxazin-7-yl)urea], more than 1000 nM.
On the same count and under the same terms, to `Cc1ccc(C#N)c(CN2C(=O)[C@@H](C)Oc3cc(NC(=O)NC(C)(C)C)ccc32)c1` [Example 87, (R)-1-(tert-butyl)-3-(4-(2-cyano-5-methylbenzyl)-2-methyl-3-oxo-3,4-dihydro-2H-benzo[b][1,4]oxazin-7-yl)urea] belongs more than 1000 nM; to `Cc1ccc(C#N)c(CN2C(=O)[C@H](C)Oc3cc(NC(=O)NC(C)(C)C)ccc32)c1` [Example 88, (S)-1-(tert-butyl)-3-(4-(2-cyano-5-methylbenzyl)-2-methyl-3-oxo-3,4-dihydro-2H-benzo[b][1,4]oxazin-7-yl)urea], more than 1000 nM.
